# Assay results from US12227495B2, “Herbicidal compounds” (SYNGENTA CROP PROTECTION AG, priority 2018, dated 2025).
# Columns and labels:
# Assay type in all cases: in vivo
# [1] = system: Lolium perenne (LOLPE); assay: Post-emergence herbicide test, glasshouse, percentage damage; settings: 1000 g/ha, evaluated after 13 days
# Procedure, shortened: (§1)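 Pots of standard soil were sown and kept in a glasshouse at 24/16 °C day/night, 14 h light, 65% humidity; plants were sprayed one day after sowing (pre-emergence) or after 8 days (post-emergence) at 500 g/ha unless otherwise stated. Damage was scored after 13 days on a five-point scale (5=81-100%; 1=0-20%).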
# [2] = system: Solanum nigrum (SOLNI); assay: as above; settings: 1000 g/ha, evaluated after 13 days
# Procedure, shortened: as §1
# [3] = system: Ipomoea hederacea (IPOHE); assay: as above; settings: 1000 g/ha, evaluated after 13 days
# Procedure, shortened: as §1
# [4] = system: Amaranthus retoflexus (AMARE); assay: as above; settings: 1000 g/ha, evaluated after 13 days
# Procedure, shortened: as §1
# [5] = system: Echinochloa crus-galli (ECHCG); assay: as above; settings: 1000 g/ha, evaluated after 13 days
# Procedure, shortened: as §1
# [6] = system: Setaria faberi (SETFA); assay: as above; settings: 1000 g/ha, evaluated after 13 days
# Procedure, shortened: as §1
# [7] = system: Lolium perenne (LOLPE); assay: Pre-emergence herbicide test, glasshouse, percentage damage; settings: rate 1000 g/ha, evaluated after 13 days
# Procedure, shortened: as §1
# [8] = system: Solanum nigrum (SOLNI); assay: as above; settings: rate 1000 g/ha, evaluated after 13 days
# Procedure, shortened: as §1
# [9] = system: Ipomoea hederacea (IPOHE); assay: as above; settings: rate 1000 g/ha, evaluated after 13 days
# Procedure, shortened: as §1
# [10] = system: Amaranthus retoflexus (AMARE); assay: as above; settings: rate 1000 g/ha, evaluated after 13 days
# Procedure, shortened: as §1
# [11] = system: Echinochloa crus-galli (ECHCG); assay: as above; settings: rate 1000 g/ha, evaluated after 13 days
# Procedure, shortened: as §1
# [12] = system: Setaria faberi (SETFA); assay: as above; settings: rate 1000 g/ha, evaluated after 13 days
# Procedure, shortened: as §1
SMILES,"percentage damage caused to the plant, LOLPE [1]","percentage damage caused to the plant, SOLNI [2]","percentage damage caused to the plant, IPOHE [3]","percentage damage caused to the plant, AMARE [4]","percentage damage caused to the plant, ECHCG [5]","percentage damage caused to the plant, SETFA [6]",Pre-emergence Test LOLPE percentage damage (five point scale) [7],Pre-emergence Test SOLNI percentage damage (five point scale) [8],Pre-emergence Test IPOHE percentage damage (five point scale) [9],Pre-emergence Test AMARE percentage damage (five point scale) [10],Pre-emergence Test ECHCG percentage damage (five point scale) [11],Pre-emergence Test SETFA percentage damage (five point scale) [12]
N#Cc1ccnc(Oc2cccc(Br)c2-c2cc(C(F)F)no2)c1 [Compound A87],3 (3=41-60%),4 (4=61-80%),3 (3=41-60%),4 (4=61-80%),3 (3=41-60%),5 (5=81-100%),4 (4=61-80%),3 (3=41-60%),1 (1=0-20%),4 (4=61-80%),4 (4=61-80%),5 (5=81-100%)
N#Cc1cc(Cl)cnc1Oc1cccc(F)c1-c1cc(C(F)F)no1 [Compound A37],4 (4=61-80%),5 (5=81-100%),5 (5=81-100%),5 (5=81-100%),4 (4=61-80%),5 (5=81-100%),5 (5=81-100%),5 (5=81-100%),5 (5=81-100%),5 (5=81-100%),5 (5=81-100%),5 (5=81-100%)
FC(F)c1cc(-c2c(Cl)cccc2Oc2ccc(Cl)cn2)on1 [Compound A113],5 (5=81-100%),4 (4=61-80%),5 (5=81-100%),5 (5=81-100%),4 (4=61-80%),5 (5=81-100%),5 (5=81-100%),4 (4=61-80%),4 (4=61-80%),5 (5=81-100%),5 (5=81-100%),5 (5=81-100%)
N#Cc1cc(F)cnc1Oc1cccc(Cl)c1-c1cc(C(F)F)no1 [Compound A85],5 (5=81-100%),5 (5=81-100%),5 (5=81-100%),5 (5=81-100%),5 (5=81-100%),5 (5=81-100%),5 (5=81-100%),5 (5=81-100%),5 (5=81-100%),5 (5=81-100%),5 (5=81-100%),5 (5=81-100%)
Fc1cc(Cl)cnc1Oc1ccc(Br)c(Br)c1-n1cc(C(F)(F)F)cn1 [Compound A61],1 (1=0-20%),5 (5=81-100%),2 (2=21-40%),5 (5=81-100%),1 (1=0-20%),2 (2=21-40%),1 (1=0-20%),1 (1=0-20%),1 (1=0-20%),1 (1=0-20%),1 (1=0-20%),2 (2=21-40%)
